Assay results: ChEMBL document CHEMBL3745710, “Synthesis, antibacterial and anti-MRSA activity, in vivo toxicity and a structure-activity relationship study of a quinoline thiourea” (Bioorg Med Chem Lett, 2016)
In brackets after ≈: the same amount, converted by molar mass. Activity calls are given as the source filed them. The rule behind the calls is not given here.

Assays:
Staphylococcus aureus [1] = experiment: Antibacterial activity against methicillin-resistant Staphylococcus aureus after 24 hrs by serial dilution method; type: functional
[2] = Toxicity in sixth development stage of Galleria mellonella larvae assessed as survival rate at 10 ug/ml after 24 hrs; type: organism-based; settings: in vivo
[3] = Toxicity in sixth development stage of Galleria mellonella larvae assessed as survival rate at 50 ug/ml after 72 hrs; type: organism-based; settings: in vivo
[4] = Toxicity in sixth development stage of Galleria mellonella larvae assessed as survival rate at 1000 ug/ml after 48 hrs; type: organism-based; settings: in vivo
[5] = Toxicity in sixth development stage of Galleria mellonella larvae assessed as survival rate at 50 ug/ml after 24 hrs; type: organism-based; settings: in vivo
[6] = Toxicity in sixth development stage of Galleria mellonella larvae assessed as survival rate at 1000 ug/ml after 24 hrs; type: organism-based; settings: in vivo
[7] = Toxicity in sixth development stage of Galleria mellonella larvae assessed as survival rate at 50 ug/ml after 48 hrs; type: organism-based; settings: in vivo
Pseudomonas aeruginosa = experiment: Antibacterial activity against Pseudomonas aeruginosa ATCC 10145 after 24 hrs by serial dilution method; type: functional, organism-based
[8] = Toxicity in sixth development stage of Galleria mellonella larvae assessed as survival rate at 1 ug/ml after 48 hrs; type: organism-based; settings: in vivo
Staphylococcus aureus [9] = experiment: Antibacterial activity against Staphylococcus aureus NCIMB 12702 after 24 hrs by serial dilution method; type: functional; settings: Staphylococcus aureus, NCIMB 12702, 24 h
[10] = Toxicity in sixth development stage of Galleria mellonella larvae assessed as survival rate at 1 ug/ml after 24 hrs; type: organism-based; settings: in vivo
[11] = Toxicity in sixth development stage of Galleria mellonella larvae assessed as survival rate at 100 ug/ml after 72 hrs; type: organism-based; settings: in vivo
[12] = Toxicity in sixth development stage of Galleria mellonella larvae assessed as survival rate at 100 ug/ml after 24 hrs; type: organism-based; settings: in vivo
Galleria mellonella = experiment: Toxicity in sixth development stage of Galleria mellonella larvae assessed as larvae pupation at 1 to 1000 ug/ml after 7 days relative to control; type: organism-based; settings: in vivo, 168 h
[13] = Toxicity in sixth development stage of Galleria mellonella larvae assessed as survival rate at 10 ug/ml after 72 hrs; type: organism-based; settings: in vivo
[14] = Toxicity in sixth development stage of Galleria mellonella larvae assessed as survival rate at 1000 ug/ml after 72 hrs; type: organism-based; settings: in vivo
[15] = Toxicity in sixth development stage of Galleria mellonella larvae assessed as survival rate at 10 ug/ml after 48 hrs; type: organism-based; settings: in vivo
[16] = Toxicity in sixth development stage of Galleria mellonella larvae assessed as survival rate at 1 ug/ml after 72 hrs; type: organism-based; settings: in vivo
Escherichia coli = experiment: Antibacterial activity against Escherichia coli NCIMB 9485 after 24 hrs by serial dilution method; type: functional; settings: NCIMB 9485, 24 h
[17] = Toxicity in sixth development stage of Galleria mellonella larvae assessed as survival rate at 100 ug/ml after 48 hrs; type: organism-based; settings: in vivo

CCN(CC)CCNC(=S)Nc1cc(C(F)(F)F)cc(C(F)(F)F)c1
MIC50 (Staphylococcus aureus [1]): 13.5 µM (≈ 5.22 µg/mL) | MIC90 (Staphylococcus aureus [1]): 23.5 µM (≈ 9.11 µg/mL) | survival at 24 h [2]: 100% | survival at 72 h [3]: 100% | survival at 48 h [4]: 100% | survival at 24 h [5]: 100% | survival at 24 h [6]: 100% | survival at 48 h [7]: 100% | MIC (Pseudomonas aeruginosa): inactive | survival at 48 h [8]: 100% | MIC50 (Staphylococcus aureus [9]): 96.9 µM (≈ 37.5 µg/mL) | MIC80 (Staphylococcus aureus [9]): 129 µM (≈ 50 µg/mL) | MIC90 (Staphylococcus aureus [9]): 194 µM (≈ 75.1 µg/mL) | survival at 24 h [10]: 100% | survival at 72 h [11]: 100% | survival at 24 h [12]: 100% | Activity (Galleria mellonella): Non-toxic | survival at 72 h [13]: 100% | survival at 72 h [14]: 100% | survival at 48 h [15]: 100% | survival at 72 h [16]: 100% | MIC50 (Escherichia coli): 96.9 µM (≈ 37.5 µg/mL) | MIC80 (Escherichia coli): 129 µM (≈ 50 µg/mL) | MIC90 (Escherichia coli): 194 µM (≈ 75.1 µg/mL) | survival at 48 h [17]: 100%

C=C[C@H]1CN2CC[C@H]1C[C@H]2[C@@H](NC(=S)Nc1cc(C(F)(F)F)cc(C(F)(F)F)c1)c1ccnc2ccccc12
MIC50 (Staphylococcus aureus [1]): 10.8 µM (≈ 6.1 µg/mL) | MIC90 (Staphylococcus aureus [1]): 18.1 µM (≈ 10.2 µg/mL) | survival at 24 h [2]: 100% | survival at 72 h [3]: 100% | survival at 48 h [4]: 100% | survival at 24 h [5]: 100% | survival at 24 h [6]: 100% | survival at 48 h [7]: 100% | MIC (Pseudomonas aeruginosa): inactive | survival at 48 h [8]: 100% | MIC50 (Staphylococcus aureus [9]): 8.32 µM (≈ 4.7 µg/mL) | MIC90 (Staphylococcus aureus [9]): 16.6 µM (≈ 9.38 µg/mL) | survival at 24 h [10]: 100% | survival at 72 h [11]: 100% | survival at 24 h [12]: 100% | Activity (Galleria mellonella): Non-toxic | survival at 72 h [13]: 100% | survival at 72 h [14]: 100% | survival at 48 h [15]: 100% | survival at 72 h [16]: 100% | MIC50 (Escherichia coli): 5.54 µM (≈ 3.13 µg/mL) | MIC90 (Escherichia coli): 8.32 µM (≈ 4.7 µg/mL) | survival at 48 h [17]: 100%

C=C[C@H]1CN2CC[C@H]1C[C@H]2CNC(=S)Nc1cc(C(F)(F)F)cc(C(F)(F)F)c1
MIC50 (Staphylococcus aureus [1]): 20.7 µM (≈ 9.07 µg/mL) | MIC90 (Staphylococcus aureus [1]): 31.4 µM (≈ 13.8 µg/mL) | survival at 24 h [2]: 100% | survival at 72 h [3]: 100% | survival at 48 h [4]: 100% | survival at 24 h [5]: 100% | survival at 24 h [6]: 100% | survival at 48 h [7]: 100% | MIC (Pseudomonas aeruginosa): inactive | survival at 48 h [8]: 100% | MIC50 (Staphylococcus aureus [9]): 42.9 µM (≈ 18.8 µg/mL) | MIC80 (Staphylococcus aureus [9]): 85.8 µM (≈ 37.5 µg/mL) | MIC90 (Staphylococcus aureus [9]): 85.8 µM (≈ 37.5 µg/mL) | survival at 24 h [10]: 100% | survival at 72 h [11]: 100% | survival at 24 h [12]: 100% | Activity (Galleria mellonella): Non-toxic | survival at 72 h [13]: 100% | survival at 72 h [14]: 100% | survival at 48 h [15]: 100% | survival at 72 h [16]: 100% | MIC50 (Escherichia coli): 42.9 µM (≈ 18.8 µg/mL) | MIC80 (Escherichia coli): 85.8 µM (≈ 37.5 µg/mL) | MIC90 (Escherichia coli): 85.8 µM (≈ 37.5 µg/mL) | survival at 48 h [17]: 100%
